Test results published in patent US20240301409A1, “Chemically Modified Small Activating RNA” (RACTIGEN THERAPEUTICS, priority 2021, published 2024).

System: J82 cells
Assay: Cellular proliferation assay (CCK8) in J82 cells, combined with Mitomycin C or valrubicin
Type: cell-based, human
Details: for Combination Index (CI) / relative proliferation proportion of cells: J82 cells
Procedure: J82 cells were transfected with RAG1-40-31 at concentrations of 0.1, 0.5, 1, 5, 10, 25 and 50 nM for 24 hours, and then Mitomycin C at concentrations of 1, 10, 100, 1000 and 10000 nM was added. The combined treatment was carried out with concentrations in pairs. After treatment, the proliferation of cells was detected using CCK8 kit. FIGS. 14A-14B show the relative proliferation proportion of J82 cells after the combined treatment with chemically modified saRNA RAG1-40-31 and valrubicin. […] Control and DMSO are the blank transfection control and the solvent for dilution control, respectively.
J82 cells were transfected with RAG1-40-31 at concentrations of 0.1, 0.5, 1, 5, 10, 25 and 50 nM for 24 hours, and then valrubicin at concentrations of 1, 10, 100, 1000 and 10000 nM was added. The combined treatment was carried out with concentrations in pairs. After treatment, the cellular proliferation was detected by CCK8 kit. FIGS. 15A-15B show the relative proliferation proportion of T24 cells after the combined treatment with chemically modified saRNA RAG1-40-31 and Mitomycin C. […] Control and DMSO are the blank transfection control and the solvent for dilution control, respectively.
Human bladder cancer cells Ku-7-LG (ATCC), J82 (ATCC) and T24 (ATCC) were cultured in McCoy medium (Gibco) comprising 10% calf serum (Sigma-Aldrich) and 1% penicillin/Streptomycin (Gibco). Cells were cultured at 37° C. under 5% CO2. Ku-7-LG, J82 and T24 cells were plated into 12-well plates at 10×10^4 cells per well, transfected with the small RNA at a concentration of 10 nM (unless otherwise specified) for three days, using RNAiMax (Invitrogen, Carlsbad, CA) according to the manufacturer's instructions. Two replicate wells were set for each treatment.
Cells were plated in a 96-well plate at 2˜4×10^3 cells/well, cultured overnight, and transfected with the oligonucleotide duplexes. Three days after transfection, CCK8 (Dojindo) was used to detect cellular proliferation following manufacturer's instructions. The experimental steps are briefly described as follows: 10 μL of CCK8 solution was added to each well, incubated at 37° C. for 1 hour, and then the absorbance at 450 nm was measured using a microplate reader.
In this example, chemically modified saRNA RAG1-40-31 was used in combination with clinical chemical agents to evaluate the suppressing effect of the combined agents on cancer cells.

[1] = RAG1-40-31 0.1 nM + MMC 1000 nM

## RAG1-40-31: saRNA duplex: sense fCfCAACUCAUUCUCCAAG*U*C (SEQ ID NO 16); antisense U*A*fCfUfUGGAGAAfUGAGfUfUGG*fC*A (SEQ ID NO 12) (sense CCAACUCAUUCUCCAAGUC; antisense UACUUGGAGAAUGAGUUGGCA; 2'-F and phosphorothioate modifications; modified_base (1)..(2) (1,2)=2′-fluoro; modified_base (17)..(19) (17,18,19)=phosphorothioate (PS) backbone modification; modified_base (2)..(21) (2,3,19,20,21)=phosphorothioate (PS) backbone modification; modified_base (3)..(20) (3,4,5,12,16,17,20)=2′-fluoro)
RAG1-40-31 0.1 nM + MMC 1 nM
  Combination Index (CI): 0.08
  Relative proliferation proportion of J82 cells: 74.3%
RAG1-40-31 0.1 nM + MMC 10 nM
  Combination Index (CI): 0.42
  Relative proliferation proportion of J82 cells: 71.5%
RAG1-40-31 0.1 nM + MMC 100 nM
  Combination Index (CI): 0.47
  Relative proliferation proportion of J82 cells: 32.9%
[1]
  Combination Index (CI): 0.73
  Relative proliferation proportion of J82 cells: 10.8%
RAG1-40-31 0.1 nM + MMC 10000 nM
  Combination Index (CI): 0.50
RAG1-40-31 0.1 nM + valrubicin 1 nM
  Combination Index (CI): 0.10
RAG1-40-31 0.1 nM + valrubicin 10 nM
  Combination Index (CI): 0.42
RAG1-40-31 0.1 nM + valrubicin 100 nM
  Combination Index (CI): 0.85
RAG1-40-31 0.1 nM + valrubicin 1000 nM
  Combination Index (CI): 0.18
RAG1-40-31 0.1 nM + valrubicin 10000 nM
  Combination Index (CI): 0.19
RAG1-40-31 0.5 nM + MMC 1 nM
  Combination Index (CI): 0.17
RAG1-40-31 0.5 nM + MMC 10 nM
  Combination Index (CI): 0.47
RAG1-40-31 0.5 nM + MMC 100 nM
  Combination Index (CI): 0.54
RAG1-40-31 0.5 nM + MMC 1000 nM
  Combination Index (CI): 0.75
RAG1-40-31 0.5 nM + MMC 10000 nM
  Combination Index (CI): 0.25
RAG1-40-31 0.5 nM + valrubicin 1 nM
  Combination Index (CI): 0.18
RAG1-40-31 0.5 nM + valrubicin 10 nM
  Combination Index (CI): 0.08
RAG1-40-31 0.5 nM + valrubicin 100 nM
  Combination Index (CI): 1.31
RAG1-40-31 0.5 nM + valrubicin 1000 nM
  Combination Index (CI): 0.14
RAG1-40-31 0.5 nM + valrubicin 10000 nM
  Combination Index (CI): 0.11
RAG1-40-31 1 nM + MMC 1 nM
  Combination Index (CI): 0.13
RAG1-40-31 1 nM + MMC 10 nM
  Combination Index (CI): 0.58
RAG1-40-31 1 nM + MMC 100 nM
  Combination Index (CI): 0.52
RAG1-40-31 1 nM + MMC 1000 nM
  Combination Index (CI): 0.76
RAG1-40-31 1 nM + MMC 10000 nM
  Combination Index (CI): 0.46
RAG1-40-31 1 nM + valrubicin 1 nM
  Combination Index (CI): 0.26
RAG1-40-31 1 nM + valrubicin 10 nM
  Combination Index (CI): 0.12
RAG1-40-31 1 nM + valrubicin 100 nM
  Combination Index (CI): 0.30
RAG1-40-31 1 nM + valrubicin 1000 nM
  Combination Index (CI): 0.12
RAG1-40-31 1 nM + valrubicin 10000 nM
  Combination Index (CI): 0.11
RAG1-40-31 5 nM + MMC 1 nM
  Combination Index (CI): 0.29
RAG1-40-31 5 nM + MMC 10 nM
  Combination Index (CI): 0.32
RAG1-40-31 5 nM + MMC 100 nM
  Combination Index (CI): 0.40
RAG1-40-31 5 nM + MMC 1000 nM
  Combination Index (CI): 0.43
RAG1-40-31 5 nM + MMC 10000 nM
  Combination Index (CI): 0.41
RAG1-40-31 5 nM + valrubicin 1 nM
  Combination Index (CI): 0.12
RAG1-40-31 5 nM + valrubicin 10 nM
  Combination Index (CI): 0.32
RAG1-40-31 5 nM + valrubicin 100 nM
  Combination Index (CI): 0.61
RAG1-40-31 5 nM + valrubicin 1000 nM
  Combination Index (CI): 0.13
RAG1-40-31 5 nM + valrubicin 10000 nM
  Combination Index (CI): 0.06
RAG1-40-31 10 nM + MMC 1 nM
  Combination Index (CI): 0.40
RAG1-40-31 10 nM + MMC 10 nM
  Combination Index (CI): 0.47
RAG1-40-31 10 nM + MMC 100 nM
  Combination Index (CI): 0.37
RAG1-40-31 10 nM + MMC 1000 nM
  Combination Index (CI): 0.41
RAG1-40-31 10 nM + MMC 10000 nM
  Combination Index (CI): 0.29
RAG1-40-31 10 nM + valrubicin 1 nM
  Combination Index (CI): 0.14
RAG1-40-31 10 nM + valrubicin 10 nM
  Combination Index (CI): 0.22
RAG1-40-31 10 nM + valrubicin 100 nM
  Combination Index (CI): 0.37
RAG1-40-31 10 nM + valrubicin 1000 nM
  Combination Index (CI): 0.11
RAG1-40-31 10 nM + valrubicin 10000 nM
  Combination Index (CI): 0.04
RAG1-40-31 25 nM + MMC 1 nM
  Combination Index (CI): 0.32
RAG1-40-31 25 nM + MMC 10 nM
  Combination Index (CI): 0.50
RAG1-40-31 25 nM + MMC 100 nM
  Combination Index (CI): 0.37
RAG1-40-31 25 nM + MMC 1000 nM
  Combination Index (CI): 0.28
RAG1-40-31 25 nM + MMC 10000 nM
  Combination Index (CI): 0.09
RAG1-40-31 25 nM + valrubicin 1 nM
  Combination Index (CI): 0.14
RAG1-40-31 25 nM + valrubicin 10 nM
  Combination Index (CI): 0.10
RAG1-40-31 25 nM + valrubicin 100 nM
  Combination Index (CI): 0.16
RAG1-40-31 25 nM + valrubicin 1000 nM
  Combination Index (CI): 0.05
RAG1-40-31 25 nM + valrubicin 10000 nM
  Combination Index (CI): 0.02
RAG1-40-31 25 nM and 50 nM + Mitomycin C 1, 10, 100, 1000 and 10000 nM
  relative proliferation proportion of cells: lower than 26%
RAG1-40-31 25 nM and 50 nM + Valrubicin 1, 10, 100, 1000 and 10000 nM
  relative proliferation proportion of cells: lower than 30%
RAG1-40-31 50 nM + MMC 1 nM
  Combination Index (CI): 0.96
RAG1-40-31 50 nM + MMC 10 nM
  Combination Index (CI): 0.98
RAG1-40-31 50 nM + MMC 100 nM
  Combination Index (CI): 0.44
RAG1-40-31 50 nM + MMC 1000 nM
  Combination Index (CI): 0.19
RAG1-40-31 50 nM + MMC 10000 nM
  Combination Index (CI): 0.15
RAG1-40-31 50 nM + valrubicin 1 nM
  Combination Index (CI): 0.11
RAG1-40-31 50 nM + valrubicin 10 nM
  Combination Index (CI): 0.14
RAG1-40-31 50 nM + valrubicin 100 nM
  Combination Index (CI): 0.22
RAG1-40-31 50 nM + valrubicin 1000 nM
  Combination Index (CI): 0.09
RAG1-40-31 50 nM + valrubicin 10000 nM
  Combination Index (CI): 0.02
RAG1-40-31 0.1-50 nM + Mitomycin C 100, 1000 and 10000 nM
  relative proliferation proportion of cells: lower than 35%
RAG1-40-31 0.1-50 nM + Valrubicin 1000 nM and 10000 nM
  relative proliferation proportion of cells: lower than 30%
RAG1-40-31 5-50 nM + Mitomycin C 1, 10, 100, 1000 and 10000 nM
  relative proliferation proportion of cells: lower than 43%
J82 tumor cells
  effect of combined use with Mitomycin C or valrubicin, in words: synergistic effect
